Data reported in ChEMBL document CHEMBL5055668 (J Med Chem, 2021).
Activity calls are given as the source filed them. The calls are words filed in the database; no cut-off is given here.

Assays:
[1] = system: MC-38; assay: Induction of conversion of M2-macrophages to the M1 phenotype in CM of MC38 cells treated C57BL/6 mouse BMDM cells transfected with CSF1R shRNA2 assessed as decrease in Tnf mRNA expression measured after 24 hrs by qPCR analysis; assay type: functional, cell-based
[2] = molecular target: T1, Macrophage colony-stimulating factor 1 receptor (Mus musculus) (UniProt P09581); assay: Inhibition of CSF-1R signaling pathway in C57BL/6 mouse BMDM cells assessed as reduction in M-CSF induced AKT phosphorylation preincubated for 12 hrs followed by M-CSF stimulation for 30 mins by Western blot analysis; assay type: cell-based
T1 sequence (whole entry): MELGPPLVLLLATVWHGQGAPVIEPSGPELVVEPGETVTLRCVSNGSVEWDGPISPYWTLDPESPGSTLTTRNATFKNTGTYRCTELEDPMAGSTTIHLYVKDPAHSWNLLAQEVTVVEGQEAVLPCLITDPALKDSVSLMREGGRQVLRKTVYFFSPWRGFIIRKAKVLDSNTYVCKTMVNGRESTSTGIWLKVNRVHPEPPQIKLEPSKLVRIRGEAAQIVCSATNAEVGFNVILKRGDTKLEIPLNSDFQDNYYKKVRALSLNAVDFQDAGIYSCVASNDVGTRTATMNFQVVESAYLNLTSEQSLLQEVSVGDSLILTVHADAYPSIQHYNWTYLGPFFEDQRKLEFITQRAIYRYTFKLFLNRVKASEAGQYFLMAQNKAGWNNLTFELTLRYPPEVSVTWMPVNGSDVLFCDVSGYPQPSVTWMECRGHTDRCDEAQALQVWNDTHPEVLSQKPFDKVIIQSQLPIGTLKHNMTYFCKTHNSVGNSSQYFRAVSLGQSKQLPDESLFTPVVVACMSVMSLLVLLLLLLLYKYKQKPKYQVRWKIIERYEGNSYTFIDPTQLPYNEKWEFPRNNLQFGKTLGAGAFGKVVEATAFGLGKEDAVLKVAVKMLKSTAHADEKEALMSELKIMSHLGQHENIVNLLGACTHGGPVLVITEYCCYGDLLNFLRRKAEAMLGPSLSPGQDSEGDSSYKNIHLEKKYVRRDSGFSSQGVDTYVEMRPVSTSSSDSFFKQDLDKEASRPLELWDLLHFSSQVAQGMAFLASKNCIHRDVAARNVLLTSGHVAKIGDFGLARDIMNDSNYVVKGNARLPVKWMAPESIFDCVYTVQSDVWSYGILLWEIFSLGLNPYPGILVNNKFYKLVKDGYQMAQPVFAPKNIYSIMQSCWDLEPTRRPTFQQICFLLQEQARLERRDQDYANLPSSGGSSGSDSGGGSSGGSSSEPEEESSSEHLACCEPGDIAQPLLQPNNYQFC

[3] = molecular target: T1, Macrophage colony-stimulating factor 1 receptor (Mus musculus); assay: Binding affinity to CSF-1R in C57BL/6 mouse BMDM cells assessed as increase in melting temperature at 100 nM after 1 hr by CETSA; assay type: cell-based
[4] = molecular target: T1, Macrophage colony-stimulating factor 1 receptor (Mus musculus); assay: Binding affinity to CSF-1R in C57BL/6 mouse BMDM cells at 100 nM after 1 hr by SIP assay; assay type: cell-based
[5] = system: BMDM; assay: (§1) Induction of conversion of M2-macrophages to the M1 phenotype in CM of MC38 cells treated C57BL/6 mouse BMDM cells assessed as down regulation of Il10 mRNA expression at 30 to 100 nM preincubated with culture medium of MC38 cells for 24 hrs followed by compound addition and measured after 24 hrs by qPCR analysis; assay type: functional, cell-based; conditions: dose 30-100 nM
[6] = system: BMDM; assay: as §1, with “Chil3” for “Il10”; assay type: functional, cell-based; conditions: dose 30-100 nM
[7] = system: BMDM; assay: as §1, with “upregulation” for “down regulation”, “[…]” for “Il10”; assay type: functional, cell-based; conditions: dose 30-100 nM
[8] = system: THP-1; assay: Induction of conversion of M2-macrophages to the M1 phenotype in CM of HCT116 cells treated […]-differentiated human THP-1 cells assessed as down regulation of Chil3 mRNA expression at 30 to 100 nM incubated for 24 hrs by qPCR analysis; assay type: functional, cell-based; conditions: dose 30-100 nM
[9] = system: THP-1; assay: Induction of conversion of M2-macrophages to the M1 phenotype in CM of HCT116 cells treated […]-differentiated human THP-1 cells assessed as down regulation of Vegf mRNA expression at 30 to 100 nM incubated for 24 hrs by qPCR analysis; assay type: functional, cell-based; conditions: dose 30-100 nM
[10] = system: THP-1; assay: Induction of conversion of M2-macrophages to the M1 phenotype in CM of HCT116 cells treated […]-differentiated human THP-1 cells assessed as upregulation of Tnf mRNA expression at 30 to 100 nM incubated for 24 hrs by qPCR analysis; assay type: functional, cell-based; conditions: dose 30-100 nM
[11] = system: THP-1; assay: Induction of conversion of M2-macrophages to the M1 phenotype in CM of HCT116 cells treated […]-differentiated human THP-1 cells assessed as upregulation of Il6 mRNA expression at 30 to 100 nM incubated for 24 hrs by qPCR analysis; assay type: functional, cell-based; conditions: dose 30-100 nM
[12] = system: MC-38; assay: Antiproliferative activity against mouse MC38 cells assessed as reduction in cell viability at 10 to 100 nM incubated for 24 hrs by CCK-8 assay; assay type: functional, cell-based; conditions: dose 10-100 nM
[13] = system: MC-38; assay: Induction of conversion of M2-macrophages to the M1 phenotype in CM of MC38 cells treated C57BL/6 mouse BMDM cells transfected with CSF1R shRNA2 assessed as decrease in Nos2 mRNA expression measured after 24 hrs by qPCR analysis; assay type: functional, cell-based
[14] = system: Mus musculus; assay: Toxicity in C57BL/6 mouse allografted with mouse MC38 cells assessed as weight loss at 5 to 20 mg/kg, po administered every day for 2 weeks; assay type: organism-based, MC-38; conditions: in vivo, 336 h, dose 5-20 mg/kg
[15] = system: Mus musculus; assay: Toxicity in C57BL/6 mouse allografted with mouse MC38 cells assessed as lung damage at 5 to 20 mg/kg, po administered every day for 2 weeks by histopathological analysis; assay type: organism-based, MC-38; conditions: in vivo, 336 h, dose 5-20 mg/kg
[16] = system: MC-38; assay: Antitumor activity against mouse MC38 cells allografted in C57BL6 mouse assessed as reduction in CSF-1R phosphorylation in tumor tissue at 5 to 10 mg/kg, po administered daily for 2 weeks by Western blot analysis; assay type: functional, organism-based; conditions: dose 5-10 mg/kg
[17] = system: MC-38; assay: Antitumor activity against mouse MC38 cells allografted in C57BL6 mouse assessed as increase in Tnf mRNA expression at 10 to 20 mg/kg, po administered daily for 2 weeks by qPCR analysis; assay type: functional, organism-based; conditions: dose 10-20 mg/kg
[18] = system: MC-38; assay: Antitumor activity against mouse MC38 cells allografted in C57BL6 mouse assessed as increase in Nos2 mRNA expression at 10 to 20 mg/kg, po administered daily for 2 weeks by qPCR analysis; assay type: functional, organism-based; conditions: dose 10-20 mg/kg
[19] = system: MC-38; assay: Antitumor activity against mouse MC38 cells allografted in macrophage depleted C57BL6 mouse at 20 mg/kg, po administered daily for 2 weeks; assay type: functional, organism-based
[20] = system: HCT-116; assay: Antitumor activity against human HCT-116 cells xenografted in nude BALB/c mouse assessed as reduction in tumor weight at 5 to 20 mg/kg, po administered daily for 2 weeks; assay type: functional, organism-based; conditions: dose 5-20 mg/kg

inhibition [2]: Dose-dependent effect
Tm [3]: 68 °C
Activity [4]: Active
Structure (SMILES): Cc1[nH]c(/C=C2\C(=O)Nc3cc(NC(=O)Nc4cc(C(C)(C)C)on4)ccc32)c(C)c1NC(=O)CN1CCN(C)CC1
Activity [1]: Active
Activity [5]: Active
Activity [6]: Active
Activity [7]: Active
Activity [8]: Active
Activity [9]: Active
Activity [10]: Active
Activity [11]: Active
Activity [12]: inactive
Activity [13]: Active
Activity [14]: Non-Toxic
Activity [15]: Non-Toxic
Activity [16]: Active
Activity [17]: Active
Activity [18]: Active
Activity [19]: inactive
Activity [20]: inactive
